# Tests used:
# Assay type in all cases: in vivo, brown guinea pig
# [1] = Body weight of brown guinea pigs during oral β-NMN administration (Example 1); conditions: for Body weight: oral 500 mg/kg
# Protocol: (§1) First, six brown guinea pigs were divided into a group administered β-NMN (NMN group) and a group administered injection water (control group). A day performed this group dividing was considered day 0 of administration, and from the next day, the β-NMN solution or injection water was orally administered to the guinea pigs of each group once a day for 42 days. The β-NMN solution was administered at a dosage of 500 mg/kg body weight.
# A body weight of each guinea pig was measured with an electronic balance in the morning once a week from the first administration day. The measurement was performed before the irradiation on the irradiation day, and before the administration on the β-NMN administration day.
# [2] = test system: pigmentation induced by ultraviolet; test: Ultraviolet-induced skin pigmentation in brown guinea pigs, oral β-NMN (Example 1); conditions: for ΔL value at ultraviolet irradiation site: oral 500 mg/kg body weight once a day
# Text: (§2) Brown guinea pigs (Kw1: line A-1, supplied from Kiwa Laboratory Animals Co., Ltd.) used for the subsequent experiment were bred under SPF environment throughout the entire experimental period. As in a case of humans, it is known that pigmentation of the brown guinea pigs of Kw1: line A-1 is caused by ultraviolet irradiation.
# (§3) First, an unanesthetized brown guinea pig was fixed on a fixed plate in an abdominal position, and the back skin was sheared with an electric hair clipper and shaved with an electric shaver. Among the shaved area of the back skin, a region obtained by cutting out a region corresponding to the irradiation site by attaching a tape for bookbinding to an adhesive fabric stretchable bandage (ELASTOPORE No. 50, Nichiban Co., Ltd.) was attached on a site other than the ultraviolet irradiation site, and thereby the region other than the radiation site was light-shielded. Further, the eyes of the guinea pig were also light-shielded from ultraviolet by attaching lint cloth with the adhesive fabric stretchable bandage. Thereafter, ultraviolet (UVB) irradiation was performed from a distance of 40 cm using five SE lamps (wavelength of 250 to 350 nm, FL20S E, Toshiba Corporation) attached to an ultraviolet irradiation apparatus (Y-798-II, Orion Electric Co., Ltd.).
# (§4) Regarding oral administration, a solution in which β-NMN (Oriental Yeast Co., Ltd.) was dissolved in injection water (Otsuka Pharmaceutical Factory, Inc.) was orally administered forcedly using a disposable syringe made of polypropylene (Terumo Corporation) attached with a catheter (a nutrition catheter manufactured by JMS Co., Ltd.). […] A dosage was calculated from a body weight value on an administration day or a day close to the administration day, and the dosage was 5 mL/kg.
# Effects of […] on pigmentation induced by ultraviolet were examined using brown guinea pigs.
# as §1, with “weight. […]” for “weight.”
# (Measurement of pigmentation) L values (brightness) of the skin of the ultraviolet irradiation site of each guinea pig were measured by using Chroma Meter (CR-300, Konica Minolta, Inc.) on the first irradiation day (day 0), and on days 14, 21, and 28. […] On days 0, 14 and 21, L values were measured before the ultraviolet irradiation, and on day 28, L values were measured in the morning. […]
# [3] = test system: pigmentation induced by ultraviolet; test: Ultraviolet-induced skin pigmentation in brown guinea pigs, oral and transdermal β-NMN (Example 2); conditions: for ΔL value at ultraviolet irradiation site: 28 days from first irradiation
# Text: as §2, §3, §4
# Effects of β-NMN on pigmentation induced by ultraviolet were examined using brown guinea pigs.
# Ethanol (lot number: DSM5187, Wako Chemical Co., Ltd.), 1,3-butanediol (lot number: TWQ 6672, Wako Pure Chemical Industries, Ltd.), and injection water (lot number: K5F71, Otsuka Pharmaceutical Factory, Inc.) were mixed at a ratio of 1:1:8 (a volume ratio), and used as a solvent. A solution dissolved β-NMN in this solvent at a concentration of 0.5% by mass was used as a β-NMN-containing external preparation.
# First, six brown guinea pigs were divided into a group orally administered β-NMN and a group not administered β-NMN. […]
smiles,measurement,setting,value
"NC(=O)c1ccc[n+]([C@@H]2O[C@H](COP(=O)([O-])O)[C@@H](O)[C@H]2O)c1 [NMN, Nicotinamide mononucleotide]",Body weight,[1]; 0 days after first administration,405 ± 22 g
same,Body weight,[1]; 1 day after first administration,408 ± 23 g
same,Body weight,[1]; 8 days after first administration,431 ± 23 g
same,Body weight,[1]; 15 days after first administration,462 ± 33 g
same,Body weight,[1]; 22 days after first administration,497 ± 34 g
same,Body weight,[1]; 29 days after first administration,529 ± 29 g
same,Body weight,[1]; 36 days after first administration,551 ± 35 g
same,Body weight,[1]; 43 days after first administration,584 ± 33 g
same,Body weight difference versus control group,[1]; oral 500 mg/kg once a day for 42 days,no significant difference in body weight
same,ΔL value at ultraviolet irradiation site,[2]; day 14 after first irradiation,8.28
same,ΔL value at ultraviolet irradiation site,[2]; day 21 after first irradiation,8.99
same,ΔL value at ultraviolet irradiation site,[2]; day 28 after first irradiation,9.55
same,Pigmentation compared to the control group,[2]; oral 500 mg/kg body weight once a day for 42 days,pigmentation was inhibited
same,ΔL value at ultraviolet irradiation site,"[3]; NMN oral administration group (oral 500 mg/kg, solvent only on skin)",6.01
same,ΔL value at ultraviolet irradiation site,[3]; NMN transdermal & oral administration group (oral 500 mg/kg plus 0.05 mL of 0.5% by mass external preparation per site),5.20
same,Pigmentation compared with the control group,[3]; oral administration only,pigmentation was inhibited
same,Pigmentation compared with only oral administration,[3]; transdermal administration in addition to oral administration,pigmentation was further inhibited
